# Laboratory results published in patent publication US20160215267A1, “METHODS FOR GENERATING 3D CELL CULTURE MODEL IN HIGH RESPIRATION ENVIRONMENTS FOR HIGH-CONTENT ANALYSES AND SCREENING” (IKKO-ZU CORPORATION, priority 2015, published 2016).
# Tested on: HepG2/C3A
# Test: Drug-induced liver injury (DILI) simulated by adjusting air supply from the well bottom, island-shaped 3Ds on PDMS
# Type: cell-based, human
# Conditions: 24 h exposure, highest concentration 20 mM
# Procedure: Compounds were dissolved at 200 times the highest test concentration in 100% DMSO. […] The final DMSO concentration was set constant and less than 0.4% over the tested dilutions. […] Therefore, serially-diluted compounds were finally diluted in situ at 1/2 and mixed by a gentle rocking motion a few times. […]
# Cells grown as island 3Ds in the gas-permeable PDMS membrane were exposed to drug treatments described above. […] The plates were equilibrated to 5% CO2 and 3TC and measured by Opera (PerkinElmer).
# For detailed global image acquisition, a 20× objective was used in spinning-disc confocal mode. […] Then the cell area was estimated for selected nuclei in the regions, and TMRM emission intensity in the cell regions was calculated for the selected cells over the 4 designated fields per well. […] For the dose-response and Z′ values, the intensity values were analyzed on a projection image representing the peak intensity values for each of 4 Z-planes projected onto a single image. For the detailed analysis of the entire 3Ds, each Z-plane was individually analyzed.
compound,measurement,setting,value
"CC(=O)Nc1ccc(O)cc1 [Acetaminophen, acetaminophen]",toxicity response (dose response curve),3Ds on PDMS membrane left entirely bare,apparently unresponsive
same,toxicity response (dose response curve),3Ds on PDMS membrane partially-sealed,suggesting a DILI effect
